The values below come from PubChem BioAssay AID180 (DTP/NCI, 2004).

Structures are written as SMILES. Values joined by “and” are separate entries in the source; they are usually repeats but may differ in a detail not shown here. Equal entries are not always repeated.

The assay concerns BDF1 mice, Adenocarcinoma 755 s.c., tumor weight T/C. The experiment in a line: NCI In Vivo Anticancer Drug Screen. Data for tumor model Adenocarcinoma 755 (subcutaneous) in B6D2F1 (BDF1) mice. The settings on record: endpoint: mean tumor weight, schedule: Q01DX011 (ip), higher = larger tumour. An outline of the steps:
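Values express treated (T) relative to vehicle-dosed control (C) animals, based on survival or tumour size measured after compound treatment of mice bearing a transplanted tumour.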

[1] abbreviates: dose: 50.0 mg/kg/injection, vehicle: saline.
The mark [2] stands for this setting: dose: 100.0 mg/kg/injection, vehicle: saline.
The mark [3] stands for this setting: dose: 200.0 mg/kg/injection, vehicle: saline.
Where [4] appears, read: dose: 15.0 mg/kg/injection, vehicle: methylcellulose (MC).
The mark [5] stands for this setting: dose: 30.0 mg/kg/injection, vehicle: methylcellulose (MC).
Where [6] appears, read: dose: 57.0 mg/kg/injection, vehicle: methylcellulose (MC).
The mark [7] stands for this setting: dose: 113.0 mg/kg/injection, vehicle: methylcellulose (MC).
The mark [8] stands for this setting: dose: 225.0 mg/kg/injection, vehicle: methylcellulose (MC).
The mark [9] stands for this setting: dose: 80.0 mg/kg/injection, vehicle: methylcellulose (MC).

Take `Oc1ccc2ccccc2c1N=Nc1ccccc1`: the T/C under setting [1] was 69 % of control, the T/C under setting [2] was 55 % of control and the T/C under setting [3] is 50 % of control.

Take `CO[C@@]12[C@H](COC(N)=O)C3=C(C(=O)C(C)=C(N)C3=O)N1C[C@@H]1N[C@@H]12`: the T/C is 82 % of control (dose: 0.1 mg/kg/injection, vehicle: carboxymethylcellulose (CMC)); 60 % of control (dose: 0.1 mg/kg/injection, vehicle: methylcellulose (MC)); 79 % of control (dose: 0.2 mg/kg/injection, vehicle: carboxymethylcellulose (CMC)); 69 % of control (dose: 0.25 mg/kg/injection, vehicle: carboxymethylcellulose (CMC)); 92 % of control and 116 % of control (dose: 0.32 mg/kg/injection, vehicle: carboxymethylcellulose (CMC)); 17 % of control (dose: 0.5 mg/kg/injection, vehicle: carboxymethylcellulose (CMC)). In addition, the T/C is 26 % of control (dose: 0.5 mg/kg/injection, vehicle: methylcellulose (MC)); 63 % of control and 71 % of control (dose: 0.53 mg/kg/injection, vehicle: carboxymethylcellulose (CMC)); 22 % of control (dose: 0.82 mg/kg/injection, vehicle: carboxymethylcellulose (CMC)); 8 % of control (dose: 1.0 mg/kg/injection, vehicle: carboxymethylcellulose (CMC)); 12 % of control (dose: 1.0 mg/kg/injection, vehicle: methylcellulose (MC)); 14 % of control (dose: 1.02 mg/kg/injection, vehicle: carboxymethylcellulose (CMC)). Moreover, the T/C runs as follows: (dose: 1.36 mg/kg/injection, vehicle: carboxymethylcellulose (CMC)) 5 % of control; (dose: 2.0 mg/kg/injection, vehicle: carboxymethylcellulose (CMC)) 1 % of control; (dose: 180.0 micrograms/kg/injection, vehicle: carboxymethylcellulose (CMC)) 89 % of control; (dose: 300.0 micrograms/kg/injection, vehicle: carboxymethylcellulose (CMC)) 86 % of control; (dose: 450.0 micrograms/kg/injection, vehicle: carboxymethylcellulose (CMC)) 24 % of control and 29 % of control; (dose: 512.0 micrograms/kg/injection, vehicle: carboxymethylcellulose (CMC)) 87 % of control. Moreover, the T/C (dose: 900.0 micrograms/kg/injection, vehicle: carboxymethylcellulose (CMC)) was 5 % of control; the T/C (dose: 1025.0 micrograms/kg/injection, vehicle: carboxymethylcellulose (CMC)) was 63 % of control; the T/C (dose: 2050.0 micrograms/kg/injection, vehicle: carboxymethylcellulose (CMC)) is 8 % of control.

Turning to `SCc1ccccn1`, the T/C (dose: 37.8 mg/kg/injection, vehicle: carboxymethylcellulose (CMC)) is 109 % of control and the T/C (dose: 300.0 mg/kg/injection, vehicle: carboxymethylcellulose (CMC)) was 97 % of control.

`Nc1ncnc2c1cnn2Cc1ccc(Cl)cc1`: the T/C is, setting by setting: (dose: 9.5 mg/kg/injection, vehicle: carboxymethylcellulose (CMC)) 98 % of control; (dose: 75.0 mg/kg/injection, vehicle: carboxymethylcellulose (CMC)) 38 % of control.

As to `CC(=O)Nc1nc(SCc2ccccc2)c2ncn(C(C)=O)c2n1`, the T/C runs as follows: (dose: 7.5 mg/kg/injection, vehicle: methylcellulose (MC)) 53 % of control; under setting [4], 4 % of control; under setting [5], 2 % of control.

With `O[C@H](CN1CC1)[C@@H](O)CN1CC1`, the T/C (dose: 0.19 mg/kg/injection, vehicle: methylcellulose (MC)) was 50 % of control; the T/C (dose: 0.38 mg/kg/injection, vehicle: methylcellulose (MC)) is 47 % of control; the T/C (dose: 0.75 mg/kg/injection, vehicle: methylcellulose (MC)) was 13 % of control; the T/C (dose: 1.5 mg/kg/injection, vehicle: methylcellulose (MC)) was 8 % of control.

Consider `CCC(C)Cn1cnc2c(=S)nc(N)[nH]c21` (stereo unspecified), for which the T/C under setting [4] is 2 % of control.

With `Cc1ccccc1-c1nc2c(N)nc(N)nc2nc1N`, the T/C (dose: 50.5 mg/kg/injection, vehicle: carboxymethylcellulose (CMC)) was 83 % of control; the T/C under setting [6] was 54 % of control and 75 % of control; the T/C (dose: 101.0 mg/kg/injection, vehicle: carboxymethylcellulose (CMC)) was 75 % of control; the T/C under setting [7] is 48 % of control and 52 % of control; the T/C (dose: 202.0 mg/kg/injection, vehicle: carboxymethylcellulose (CMC)) was 68 % of control; the T/C under setting [8] is 82 % of control.

With `S=P(Oc1ccccc1)(N1CC1)N1CC1`, the T/C (dose: 55.0 mg/kg/injection, vehicle: methylcellulose (MC)) is 22 % of control and 42 % of control and 44 % of control; the T/C (dose: 220.0 mg/kg/injection, vehicle: methylcellulose (MC)) was 20 % of control.

`O=C1[O][Sb]23[O]C(=O)C([O]2)C(O)C(O)C2[O][Sb]4([O]C(=O)C([O]4)C(O)C(O)C1[O]3)[O]C2=O` (stereo unspecified): the T/C under setting [9] is 50 % of control and 55 % of control.

As to `N#CCCn1cnc2c(=S)nc[nH]c21`, the T/C (dose: 14.0 mg/kg/injection, vehicle: other) was 89 % of control.

For `O=C(Nc1ccc(C2=NCCN2)cc1)c1ccc(N=Nc2ccc(C(=O)Nc3ccc(C4=NCCN4)cc3)cc2)cc1`, the T/C was 151 % of control under setting [4]; 119 % of control under setting [5]; 100 % of control (dose: 120.0 mg/kg/injection, vehicle: methylcellulose (MC)).

For the compound `CSc1nc(N)cc(=O)n1C`, the T/C reads like this: under setting [1], 100 % of control; under setting [2], 63 % of control; under setting [3], 98 % of control.

In the case of `CCCCn1cnc2c(SCC(=O)O)nc(N)nc21`, the T/C was 54 % of control (dose: 25.0 mg/kg/injection, vehicle: methylcellulose (MC)); 58 % of control under setting [9]; 69 % of control (dose: 250.0 mg/kg/injection, vehicle: methylcellulose (MC)).

As to `CS(=O)(=O)OCCC(=O)NCCCCCNC(=O)CCOS(C)(=O)=O`, the T/C runs as follows: under setting [6], 64 % of control; under setting [7], 53 % of control; under setting [8], 30 % of control.

As for `CCOc1nc(N)nc2nc[nH]c12`, the T/C is, setting by setting: (dose: 8.0 mg/kg/injection, vehicle: methylcellulose (MC)) 88 % of control; (dose: 16.0 mg/kg/injection, vehicle: methylcellulose (MC)) 55 % of control; (dose: 31.0 mg/kg/injection, vehicle: methylcellulose (MC)) 59 % of control.

`CC(C)Sc1nc(N)nc2nc[nH]c12`: the T/C reads like this: (dose: 1.0 mg/kg/injection, vehicle: saline) 41 % of control; (dose: 1.6 mg/kg/injection, vehicle: methylcellulose (MC)) 16 % of control; (dose: 3.0 mg/kg/injection, vehicle: saline) 41 % of control; (dose: 3.1 mg/kg/injection, vehicle: methylcellulose (MC)) 11 % of control; (dose: 6.0 mg/kg/injection, vehicle: saline) 30 % of control; (dose: 6.25 mg/kg/injection, vehicle: methylcellulose (MC)) 2 % of control. The T/C (dose: 12.0 mg/kg/injection, vehicle: saline) is 37 % of control; the T/C (dose: 12.5 mg/kg/injection, vehicle: methylcellulose (MC)) was 1 % of control; the T/C (dose: 25.0 mg/kg/injection, vehicle: saline) is 17 % of control; the T/C under setting [1] is 4 % of control; the T/C under setting [2] was 7 % of control; the T/C (dose: 125.0 micrograms/kg/injection, vehicle: saline) is 76 % of control. Besides, the T/C was 77 % of control (dose: 250.0 micrograms/kg/injection, vehicle: saline); 52 % of control (dose: 500.0 micrograms/kg/injection, vehicle: saline); 80 % of control (dose: 1000.0 micrograms/kg/injection, vehicle: saline).

Broadly, the T/C is the result in the treated group divided by that in the control group, in per cent.
